The nature of the series: solvent given as SMILES.

Take `C(=C\c1nc(/C=C/c2ccc(-n3c4ccccc4c4ccccc43)cc2)nc(/C=C/c2ccc(-n3c4ccccc4c4ccccc43)cc2)n1)/c1ccc(-n2c3ccccc3c3ccccc32)cc1`: the emission maximum is given as 500 nm (in C1CCOC1), 574 nm (in CC#N), 453 nm (in Cc1ccccc1) and 526 nm (in ClCCl).

`Cc1cc(C)c(C2=C(c3c(C)sc(-c4ccc(-c5nc(-c6ccccc6)c(-c6ccccc6)[nH]5)cc4)c3C)C(F)(F)C(F)(F)C2(F)F)s1` returned an emission maximum (in C1CCOC1) of 393 nm.

In turn, `CCc1nc2c(nc1CC)C(c1ccccc1)=[N+]1C2=Nc2c3nc(CC)c(CC)nc3c(-c3ccccc3)n2[B-]1(F)F` returned an emission maximum (in C1CCOC1) of 721 nm.

The compound `c1ccc(-c2ccc(-c3cn4ccc[n+]4[n-]3)cc2)cc1` gave an emission maximum (in ClCCl) of 456 nm.

On to `CC1(C)c2ccccc2N(c2ccc(-c3cc(C#N)c(C#N)cc3-c3ccc(N4c5ccccc5C(C)(C)c5ccccc54)cc3)cc2)c2ccccc21`, for which the emission maximum by setting is: (in Cc1ccccc1) 532 nm; (in c1cc(-c2cccc(-n3c4ccccc4c4ccccc43)c2)cc(-n2c3ccccc3c3ccccc32)c1) 499 nm.

Take `CN(C)CCN(Cc1c2ccccc2c(CN(CCN(C)C)c2ccc([N+](=O)[O-])cc2[N+](=O)[O-])c2ccccc12)c1ccc([N+](=O)[O-])cc1[N+](=O)[O-]`: the emission maximum is given as 416 nm (in C1CCCCC1); 419 nm (in C1CCOC1); 389 nm (in CC#N); 387 nm (in CC(C)=O); 388 nm (in CCO); 424 nm (in CN(C)C=O). Further, the emission maximum was found to be 389 nm (in CO) and 417 nm (in ClC(Cl)Cl).

Compound `Cc1ccc(C)n1-c1ccc(C#N)cc1` registered an emission maximum (in C1CCOC1) of 501 nm; an emission maximum (in CCCCCC) of 406 nm; an emission maximum (in CCCCCl) of 480 nm; an emission maximum (in CCOCC) of 479 nm; an emission maximum (in ClCCl) of 517 nm.

On to `CCN(CC)c1ccc2cc(-c3ccc(-c4ccc5ccc6c(-c7ccc(-c8cc9ccc(N(CC)CC)cc9oc8=O)cc7)ccc7ccc4c5c76)cc3)c(=O)oc2c1`, for which the emission maximum (in ClC(Cl)Cl) is reported as 475 nm.

The compound `O=c1c2cc(F)c(O)cc2sc2cc(O)c(F)cc12` returned an emission maximum (in CCO) of 465 nm.

In turn, `Cc1cc(C)c(C2=C3C=CC=[N+]3[B-]3(c4ccccc4)Oc4cc(O)cc5c6ccc(C)cc6c6cc2n3c6c45)c(C)c1` (stereo not drawn) yielded an emission maximum (in ClC(Cl)Cl) of 669 nm.

Under “in ClC(Cl)Cl”, `Cc1c2c(nc3ccccc13)-c1cc3c(cc1CC2)-c1nc2ccccc2c(C)c1CC3` registered an emission maximum of 383 nm.

Where the note is “in Cc1ccccc1”, `c1cc2ccc3ccc4cc3c2cc1c1ccc2ccc3ccc(cc3c2c1)c1ccc2ccc3ccc4cc3c2c1` showed an emission maximum of 419 nm.

As for `CC(C)[Si](C#Cc1ccc(C#C[Si](C(C)C)(C(C)C)C(C)C)c2nc3c(ccc4cc5ccccc5cc43)nc12)(C(C)C)C(C)C`, the emission maximum (in CCCCCC) is recorded as 466 nm.

For `CC(C)(C)c1cccc2c([O-])cccc12`, the emission maximum (in O) turned out to be 443 nm.

`CN(C)c1ccc2ccc3oc(=O)c(-c4ccccc4)nc3c2c1` registered an emission maximum (in c1ccccc1) of 608 nm.

Take `Cc1ccc(C(=O)OCc2c(C)c(=O)n3c(=O)c(C)c(C)n23)cc1`: where the note is “in CCO”, the emission maximum was 460 nm.

`CC(C)(C)c1ccc2c(c1)c1cc(C(C)(C)C)ccc1n2-c1ccccc1-c1nccnc1C#N`: the emission maximum by setting is: (in Cc1ccccc1) 490 nm; (in c1cc(-n2c3ccccc3c3ccccc32)cc(-n2c3ccccc3c3ccccc32)c1) 483 nm.

Consider `c1ccc2cc3cnccc3cc2c1`, for which the emission maximum (in CCO) is recorded as 426.44 nm.

For the compound `COc1ccc(C#Cc2nc3ccccc3nc2-c2cn(C)c3ccccc23)cc1`, the emission maximum by setting is: (in C1CCOC1) 490 nm; (in CC#N) 518 nm; (in CC(C)=O) 513 nm; (in CC(C)O) 519 nm; (in CCO) 522 nm; (in CCOC(C)=O) 491 nm. The emission maximum runs as follows: (in CO) 525 nm; (in Cc1ccccc1) 468 nm; (in ClCCl) 506 nm.

For the origin of these results see the Deep4Chem optical property database.
